From patent publication US10988523B2, “Modified lipidated Relaxin B chain peptides and their therapeutic use” (Sanofi, priority 2018, dated 2021)
*1 amine or outer side, *2 acyl side, *3 side chain or, on linkers, in order; H or OH if unused. Where a SMILES comes first, the peptide text is derived from it. Side-chain parts run from the residue outwards. [ ]: non-standard residue; d: D form. The star is where a group is joined. PEG12 = NCCOCCOCCOCCOCCOCCOCCOCCOCCOCCOCCOCCOCCC(=O)O; γGlu = O=C(O)[C@H](CCC(=O)[*:2])N[*:1]; 1Nal = N[C@@H](Cc1cccc2ccccc12)C(=O)O; Stearoyl = CCCCCCCCCCCCCCCCCC(=O)*; αMeK = C[C@](N)(CCCCN)C(=O)O; αMeS = C[C@](N)(CO)C(=O)O; Nle = CCCC[C@H](N)C(=O)O; AEEA = NCCOCCOCC(=O)O; Aib = CC(C)(N)C(=O)O

Experiments:
RXFP1 = molecular target: T1, RXFP1 (Homo sapiens, UniProt Q9HBX9); assay: OVCAR5 cAMP assay (HTRF), RXFP1 agonist activity; format: cell-based; settings: for EC50: OVCAR5 cells, cAMP HTRF, read-out: EC50 (nM), OVCAR 5 cells (cAMP); for Emax: OVCAR-5, maximal cAMP relative to H2-relaxin maximum (100%), read-out: EMax, OVCAR 5 cells (cAMP)
T1 construct: OVCAR5 cells expressing endogenous RXFP1; endogenous in cells; host or cells: OVCAR5 cells
T1 sequence (Q9HBX9 1-757): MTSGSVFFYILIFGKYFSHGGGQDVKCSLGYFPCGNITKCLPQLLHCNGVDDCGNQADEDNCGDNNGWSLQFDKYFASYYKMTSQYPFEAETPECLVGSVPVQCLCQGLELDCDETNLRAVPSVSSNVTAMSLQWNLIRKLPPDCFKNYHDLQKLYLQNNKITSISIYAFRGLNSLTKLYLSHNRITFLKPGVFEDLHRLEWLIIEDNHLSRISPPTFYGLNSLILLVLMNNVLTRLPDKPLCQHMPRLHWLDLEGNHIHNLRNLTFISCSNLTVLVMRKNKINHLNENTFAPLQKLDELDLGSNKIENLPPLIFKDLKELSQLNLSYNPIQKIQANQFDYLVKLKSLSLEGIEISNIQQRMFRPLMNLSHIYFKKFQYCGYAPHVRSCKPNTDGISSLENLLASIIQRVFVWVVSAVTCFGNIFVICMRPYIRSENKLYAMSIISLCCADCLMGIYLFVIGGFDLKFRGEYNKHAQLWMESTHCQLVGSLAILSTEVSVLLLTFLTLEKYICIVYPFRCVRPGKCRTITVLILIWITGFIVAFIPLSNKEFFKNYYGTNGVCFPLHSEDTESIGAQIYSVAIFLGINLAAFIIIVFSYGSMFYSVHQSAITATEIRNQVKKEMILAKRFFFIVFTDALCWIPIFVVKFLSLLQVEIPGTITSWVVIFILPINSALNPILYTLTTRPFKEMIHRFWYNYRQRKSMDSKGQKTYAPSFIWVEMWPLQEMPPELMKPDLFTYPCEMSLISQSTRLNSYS
Method in brief: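 OVCAR5 cells (endogenous RXFP1) pretreated 40 min at 37° C with 1 mM IBMX, then exposed to peptides in serum-free medium for 30 min at 37° C. Lysate cAMP read by HTRF; EC50 from variable-slope sigmoidal fit; Emax as % of H2-relaxin maximal cAMP in same run.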

[1] = Pharmacokinetic (PK) determination after i.v. or s.c. administration to rats; format: in vivo, Sprague Dawley rats; settings: Sprague Dawley, Rat PK; for C0 / half-life: iv, 1 mg/kg i.v.; for C0: extrapolated plasma concentration at t=0, read-out: C0; for half-life / Cmax / Tmax / bioavailability: plasma; for half-life: read-out: T½ (converted); for Cmax / Tmax: sc, 3 mg/kg s.c.; for bioavailability: subcutaneous, 3 mg/kg s.c. vs 1 mg/kg i.v., dose-corrected AUC ratio
Procedure: Prior to the testing of a peptide batch, its purity (HPLC-UV) was determined. Dose was corrected for presence of salts, solvent and purity.
Sprague Dawley rats were dosed with study peptide at a dose of 1 mg/kg intravenously (i.v.) or 3 mg/kg subcutaneously (s.c.) as a solution in PBS (0.2 mg/ml and 0.6 mg/ml respectively).
Plasma samples were analyzed after protein precipitation via liquid chromatography mass spectrometry (LC/MS).
PK parameters and half-life were calculated using Phoenix 64 (WinNonlin 6.4)-Pharsight (Certara™) (non-compartment model). Values below the limit of quantification (BLQ) were replaced by zero for subsequent calculations and PK analysis.
T½: in-vivo half life, time required for test compound plasma concentration to be divided by two during the PK experiment.
C0: Extrapolated test compound plasma concentration at t=0 time point (i.v. route).
Cmax: maximal test compound plasma concentration at the indicated time point (s.c. route).
Tmax: Time point where Cmax is attained.
F %: s.c. vs i.v. bioavailability, dose-corrected area under curve (AUC) s.c. route divided by AUC i.v.

Row | SMILES | EC50 (RXFP1) [nM] | Emax (RXFP1) [%] | C0 [1] [nM] | half-life [1] [h] | Cmax [1] [nM] | Tmax [1] [h] | bioavailability [1] [%]
1 | CCCCCCCCCCCCCCCCCC(=O)N[C@@H](CCC(=O)N[C@@H](CCC(=O)N[C@@H](CCC(=O)N[C@@H](CCC(=O)NCCCC[C@H](NC(=O)CCOCCOCCOCCOCCOCCOCCOCCOCCOCCOCCOCCOCCNC(=O)[C@H](CCCCNC(C)=O)NC(=O)[C@H](CCCCN)NC(=O)[C@H](CCCNC(=N)N)NC(=O)[C@](C)(CCCCN)NC(=O)[C@](C)(CO)NC(=O)[C@H](Cc1c[nH]c2ccccc12)NC(=O)[C@@H](NC(=O)[C@H](CO)NC(=O)[C@H](CCCC)NC(=O)CNC(=O)[C@H](CCC(=O)O)NC(=O)C(C)(C)NC(=O)C(C)(C)NC(=O)[C@@H](NC(=O)[C@H](CCCCNC(C)=O)NC(=O)[C@H](C)NC(=O)[C@H](CCCNC(=N)N)NC(=O)[C@@H](NC(=O)[C@H](CCCCN)NC(=O)[C@H](CCC(=O)O)NC(=O)[C@H](CCCNC(=N)N)NC(=O)CNC(=O)[C@H](CCC(=O)O)NC(=O)[C@H](CC(C)C)NC(C)=O)C(C)C)[C@@H](C)CC)[C@@H](C)O)C(N)=O)C(=O)O)C(=O)O)C(=O)O)C(=O)O [compound 40] (Ac-LEGREKVRAK(Ac)I[Aib][Aib]EG[Nle]STW[αMeS][αMeK]RKK(Ac)[PEG12]K([γGlu-γGlu-γGlu-γGlu-Stearoyl])-NH2) | 0.02 | 90 | 7080 | 3.6 | 1540 | 6 | 66
2 | CCCCCCCCCCCCCCCCCC(=O)N[C@@H](CCC(=O)N[C@@H](CCC(=O)N[C@@H](CCC(=O)N[C@@H](CCC(=O)NCCCC[C@H](NC(=O)CCOCCOCCOCCOCCOCCOCCOCCOCCOCCOCCOCCOCCNC(=O)[C@H](CCCCNC(C)=O)NC(=O)[C@H](CCCCN)NC(=O)[C@H](CCCNC(=N)N)NC(=O)[C@](C)(CCCCN)NC(=O)[C@H](CO)NC(=O)[C@H](Cc1c[nH]c2ccccc12)NC(=O)[C@@H](NC(=O)[C@H](CO)NC(=O)[C@H](CCCC)NC(=O)CNC(=O)[C@H](CCC(=O)O)NC(=O)C(C)(C)NC(=O)C(C)(C)NC(=O)[C@@H](NC(=O)[C@H](CCCCNC(C)=O)NC(=O)[C@H](C)NC(=O)[C@H](CCCNC(=N)N)NC(=O)[C@@H](NC(=O)[C@H](CCCCN)NC(=O)[C@H](CCC(=O)O)NC(=O)[C@H](CCCNC(=N)N)NC(=O)CNC(=O)[C@H](CCC(=O)O)NC(=O)[C@H](CC(C)C)NC(C)=O)C(C)C)[C@@H](C)CC)[C@@H](C)O)C(N)=O)C(=O)O)C(=O)O)C(=O)O)C(=O)O [compound 42] (Ac-LEGREKVRAK(Ac)I[Aib][Aib]EG[Nle]STWS[αMeK]RKK(Ac)[PEG12]K([γGlu-γGlu-γGlu-γGlu-Stearoyl])-NH2) | 0.01 | 91 | 3000 | 3.7 | 2000 | 5 | 65
3 | CCCCCCCCCCCCCCCCCC(=O)N[C@@H](CCC(=O)N[C@@H](CCC(=O)N[C@@H](CCC(=O)NCCCC[C@H](NC(=O)CCOCCOCCOCCOCCOCCOCCOCCOCCOCCOCCOCCOCCNC(=O)[C@H](CCCCN)NC(=O)[C@H](CCCNC(=N)N)NC(=O)C(C)(C)NC(=O)[C@H](CO)NC(=O)[C@H](Cc1cccc2ccccc12)NC(=O)[C@@H](NC(=O)[C@H](CO)NC(=O)[C@H](CCCC)NC(=O)CNC(=O)[C@H](CCC(=O)O)NC(=O)C(C)(C)NC(=O)C(C)(C)NC(=O)[C@@H](NC(=O)[C@H](CCCCNC(C)=O)NC(=O)[C@H](C)NC(=O)[C@H](CCCNC(=N)N)NC(=O)[C@@H](NC(=O)[C@H](CCCCN)NC(=O)[C@H](CCC(=O)O)NC(=O)[C@H](CCCNC(=N)N)NC(=O)CNC(=O)[C@H](CCC(=O)O)NC(=O)[C@H](CC(C)C)NC(C)=O)C(C)C)[C@@H](C)CC)[C@@H](C)O)C(N)=O)C(=O)O)C(=O)O)C(=O)O [compound 45] (Ac-LEGREKVRAK(Ac)I[Aib][Aib]EG[Nle]ST[1Nal]S[Aib]RK[PEG12]K([γGlu-γGlu-γGlu-Stearoyl])-NH2) | – | 79 | 2900 | 2.88 | 2200 | 7 | 65
4 | CCCCCCCCCCCCCCCCCC(=O)N[C@@H](CCC(=O)N[C@@H](CCC(=O)N[C@@H](CCC(=O)N[C@@H](CCC(=O)NCCOCCOCC(=O)NCCOCCOCC(=O)NCCOCCOCC(=O)NCCOCCOCC(=O)NCCCC[C@H](NC(=O)[C@H](CCCCN)NC(=O)[C@H](CCCCN)NC(=O)[C@H](CCCNC(=N)N)NC(=O)C(C)(C)NC(=O)[C@H](CO)NC(=O)[C@H](Cc1c[nH]c2ccccc12)NC(=O)[C@@H](NC(=O)[C@H](CO)NC(=O)[C@H](CCCC)NC(=O)CNC(=O)[C@H](CCC(=O)O)NC(=O)C(C)(C)NC(=O)C(C)(C)NC(=O)[C@@H](NC(=O)[C@H](CCCCNC(C)=O)NC(=O)[C@H](C)NC(=O)[C@H](CCCNC(=N)N)NC(=O)[C@@H](NC(=O)[C@H](CCCCN)NC(=O)[C@H](CCC(=O)O)NC(=O)[C@H](CCCNC(=N)N)NC(=O)CNC(=O)[C@H](CCC(=O)O)NC(=O)[C@H](CC(C)C)NC(C)=O)C(C)C)[C@@H](C)CC)[C@@H](C)O)C(N)=O)C(=O)O)C(=O)O)C(=O)O)C(=O)O [compound 91] (Ac-LEGREKVRAK(Ac)I[Aib][Aib]EG[Nle]STWS[Aib]RKKK([AEEA-AEEA-AEEA-AEEA-γGlu-γGlu-γGlu-γGlu-Stearoyl])-NH2) | – | 88 | 2900 | 3 | 1300 | 7 | 89

Results, then the molecule that gave them:

Row | EC50 (RXFP1) [nM] | Emax (RXFP1) [%] | C0 [1] [nM] | half-life [1] [h] | Cmax [1] [nM] | Tmax [1] [h] | bioavailability [1] [%] | SMILES
5 | 0.07 | 85 | 3000 | 3.89 | 1630 | 7 | 70 | CCCCCCCCCCCCCCCCCC(=O)N[C@@H](CCC(=O)N[C@@H](CCC(=O)N[C@@H](CCC(=O)NCCOCCOCC(=O)NCCOCCOCC(=O)NCCOCCOCC(=O)NCCCC[C@H](NC(=O)[C@H](CCCCN)NC(=O)[C@H](CCCNC(=N)N)NC(=O)C(C)(C)NC(=O)[C@H](CO)NC(=O)[C@H](Cc1c[nH]c2ccccc12)NC(=O)[C@@H](NC(=O)[C@H](CO)NC(=O)[C@H](CCCC)NC(=O)CNC(=O)[C@H](CCC(=O)O)NC(=O)C(C)(C)NC(=O)C(C)(C)NC(=O)[C@@H](NC(=O)[C@H](CCC(N)=O)NC(=O)[C@H](C)NC(=O)[C@H](CCCNC(=N)N)NC(=O)[C@@H](NC(=O)[C@H](CCCCN)NC(=O)[C@H](CCC(=O)O)NC(=O)[C@H](CCCNC(=N)N)NC(=O)CNC(=O)[C@H](CCC(=O)O)NC(=O)[C@H](CC(C)C)NC(C)=O)C(C)C)[C@@H](C)CC)[C@@H](C)O)C(N)=O)C(=O)O)C(=O)O)C(=O)O [compound 74] (Ac-LEGREKVRAQI[Aib][Aib]EG[Nle]STWS[Aib]RKK([AEEA-AEEA-AEEA-γGlu-γGlu-γGlu-Stearoyl])-NH2)
6 | 0.02 | 89 | 2600 | 3.4 | 1200 | 7 | 114 | CCCCCCCCCCCCCCCCCC(=O)N[C@@H](CCC(=O)N[C@@H](CCC(=O)N[C@@H](CCC(=O)N[C@@H](CCC(=O)NCCOCCOCC(=O)NCCOCCOCC(=O)NCCOCCOCC(=O)NCCCC[C@H](NC(=O)[C@H](CCCCNC(C)=O)NC(=O)[C@H](CCCCN)NC(=O)[C@H](CCCNC(=N)N)NC(=O)[C@](C)(CCCCN)NC(=O)[C@H](CO)NC(=O)[C@H](Cc1c[nH]c2ccccc12)NC(=O)[C@@H](NC(=O)[C@H](CO)NC(=O)[C@H](CCCC)NC(=O)CNC(=O)[C@H](CCC(=O)O)NC(=O)C(C)(C)NC(=O)C(C)(C)NC(=O)[C@@H](NC(=O)[C@H](CCCCNC(C)=O)NC(=O)[C@H](C)NC(=O)[C@H](CCCNC(=N)N)NC(=O)[C@@H](NC(=O)[C@H](CCCCN)NC(=O)[C@H](CCC(=O)O)NC(=O)[C@H](CCCNC(=N)N)NC(=O)CNC(=O)[C@H](CCC(=O)O)NC(=O)[C@H](CC(C)C)NC(C)=O)C(C)C)[C@@H](C)CC)[C@@H](C)O)C(N)=O)C(=O)O)C(=O)O)C(=O)O)C(=O)O [compound 82] (Ac-LEGREKVRAK(Ac)I[Aib][Aib]EG[Nle]STWS[αMeK]RKK(Ac)K([AEEA-AEEA-AEEA-γGlu-γGlu-γGlu-γGlu-Stearoyl])-NH2)
